This is an account of results in patent publication US20170151192A1, “METHODS, COMPOSITIONS AND DEVICES FOR TREATMENT OF MOTOR AND DEPRESSION SYMPTOMS ASSOCIATED WITH PARKINSON'S DISEASE” (N TO B LTD., priority 2013, published 2017).

Each structure is given as a SMILES string. Read-outs that look alike come from different tables or passages of the source.

Series [1] deals with T1, MAO-A (Rattus norvegicus, UniProt P21396). As to the method: (§1) The animals were acutely administered and sacrificed 4 hours following drug/vehicle administration. The brain regions, hippocampus and striatum, as well as the small intestine were dissected out. All tissues were frozen at −80° C. for further analysis.
In series [2] the target is T2, MAO-B (Rattus norvegicus, UniProt P19643). The note with it: both regimens (intranasal and oral), 0.24 and 0.6 mg/Kg, p<0.05, data not shown. As to the method: as §1
The target in series [3] is T1, MAO-A. The note with it: 0.3 mg/kg, 1 hour after treatment. The text has this: (§2) Adult (3-month old) male Sprague Dawley rats, weighing about 250 grams, were from Harlan Laboratories, Inc Israel.
Series [4] addresses T2, MAO-B. The note with it: 0.1 and 0.3 mg/kg, 1 hour after treatment.
Source text: as §2

For series [5], the system named is pressor responses to oral tyramine. The note with it: rats, cited from earlier work.
Series [6] deals with T1, MAO-A. The series is described as follows: in vivo. The note with it: for inhibition at 6 mg/kg / inhibition at 0.6 mg/kg / inhibition at 1.5 mg/kg: rat, inhaled or nasal. How it is done: (§3) Control liquid formulations included vehicle only.
(§4) The animals were acutely administered intranasally and sacrificed 4 hours following drug/vehicle administration. The brain regions, hippocampus and striatum, as well as the small intestine were dissected out. […] In brief, samples were dissected out at 4° C. and homogenized. Homogenates were incubated with [C^14]serotonin for 30 minutes (final concentration 100 μM) as a substrate for MAO-A, or with [C^14]phenylethylamine for 20 minutes (final concentration 100 μM) as a substrate for MAO-B. The radioactivity was determined by liquid- scintillation.

Series [7] addresses T2, MAO-B. The series is described as follows: in vivo. As to the method: as §3, §4
For series [8] the following is noted: extensive first pass hepatic metabolism; cited from earlier work.

T1 sequence (P21396 whole entry): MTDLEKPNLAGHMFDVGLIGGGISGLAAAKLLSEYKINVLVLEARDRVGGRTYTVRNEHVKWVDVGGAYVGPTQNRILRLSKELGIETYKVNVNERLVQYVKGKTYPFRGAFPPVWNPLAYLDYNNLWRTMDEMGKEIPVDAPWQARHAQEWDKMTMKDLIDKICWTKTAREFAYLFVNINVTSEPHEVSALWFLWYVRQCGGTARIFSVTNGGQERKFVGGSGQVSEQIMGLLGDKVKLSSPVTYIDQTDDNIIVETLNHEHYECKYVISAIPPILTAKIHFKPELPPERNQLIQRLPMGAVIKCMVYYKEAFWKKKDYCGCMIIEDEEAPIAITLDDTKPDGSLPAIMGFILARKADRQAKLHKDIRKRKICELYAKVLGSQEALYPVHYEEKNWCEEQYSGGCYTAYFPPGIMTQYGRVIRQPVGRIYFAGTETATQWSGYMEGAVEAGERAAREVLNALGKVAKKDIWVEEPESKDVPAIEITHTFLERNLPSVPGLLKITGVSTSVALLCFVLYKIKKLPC
T2 sequence (P19643 whole entry): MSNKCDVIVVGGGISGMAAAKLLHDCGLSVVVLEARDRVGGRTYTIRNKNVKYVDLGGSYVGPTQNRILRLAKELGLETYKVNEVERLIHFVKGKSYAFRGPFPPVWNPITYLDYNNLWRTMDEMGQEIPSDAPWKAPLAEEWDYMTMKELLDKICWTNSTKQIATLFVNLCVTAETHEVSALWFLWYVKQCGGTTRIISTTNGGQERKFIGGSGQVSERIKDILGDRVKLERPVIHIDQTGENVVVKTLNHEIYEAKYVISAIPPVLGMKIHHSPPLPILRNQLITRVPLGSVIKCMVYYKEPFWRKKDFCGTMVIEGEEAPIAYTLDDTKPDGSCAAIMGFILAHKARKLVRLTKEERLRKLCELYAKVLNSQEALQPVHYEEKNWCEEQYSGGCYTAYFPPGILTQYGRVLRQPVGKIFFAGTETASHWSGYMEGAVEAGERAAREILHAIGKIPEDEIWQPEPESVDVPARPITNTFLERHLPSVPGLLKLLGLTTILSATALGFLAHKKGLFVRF

In the case of `C#CCN[C@@H]1CCc2ccccc21` [Rasagiline, N-propargyl-1-(R)-aminoindan], the “MAO-A inhibition in striatum and hippocampus, intranasal (powder) compared to oral” value at MAO-A [1] (0.24 and 0.6 mg/Kg, 4 h, FIGS. 8A-B) is recorded as “significantly increased”. The “MAO-A inhibition in the periphery (small intestine), intranasal compared to P.O.” value at MAO-A [1] (0.24 and 0.6 mg/kg, FIG. 9) is listed as “significantly lower”. Further, the “MAO-B activity inhibition in striatum and hippocampus” value on MAO-B [2] is listed as “about 99%”; on MAO-B [7] (intranasal, 0.24 to 6 mg/kg, both powder and liquid formulations, p<0.05 vs vehicle), “about 98%”. Further, the “brain MAO-A inhibition, NAS delivery compared to IP” value on MAO-A [3] (FIG. 1) was “significantly inhibited”. Further, the “liver MAO-A inhibition, IP compared to NAS delivery” value at MAO-A [3] (FIG. 3) is reported as “significantly inhibited”. Moreover, at MAO-B [4] (FIG. 2), the “difference in brain MAO-B inhibition between IP and NAS” value is on record as “no significant difference”. In addition, at MAO-B [4] (FIG. 4), the “differences in liver MAO-B inhibition between IP and NAS” value is given as “No significant differences”. Also, in series [5] (10 mg/kg oral dose), the “cheese reaction (MAO-A and MAO-B both inhibited)” value is “induces the “cheese reaction””. In addition, the “potentiation of pressor responses to oral tyramine” value in series [5] (21 days chronic treatment, oral doses up to 2 mg/kg daily) is reported as “does not potentiate”; in series [5] (single oral doses up to 5 mg/kg), “does not potentiate”. For the same molecule, the “MAO-A activity in striatum and hippocampus, dose dependence” value at MAO-A [6] (intranasal powder formulation, 0.24, 0.6, 1.5 and 6 mg/kg, FIG. 6) is “dose-dependently inhibited”. Besides, the “striatal MAO-A inhibition, powder compared to liquid formulation” value at MAO-A [6] (intranasal, 0.6 mg/kg, FIG. 5) was “significant higher inhibition”. Besides, the inhibition at 6 mg/kg on MAO-A [6] (read-out: MAO-A inhibition in striatum and hippocampus, intranasal, 6 mg/kg powder formulation) is greater than 90%; on MAO-A [6] (read-out: MAO-A inhibition, Brain, intranasal, 6 mg/kg liquid formulation, 4 h), 91%; at MAO-A [6] (read-out: MAO-A inhibition, Intestine, intranasal, 6 mg/kg liquid formulation, 4 h), 86%; on MAO-A [6] (read-out: MAO-A inhibition, Intestine, intranasal, 6 mg/kg powder formulation, 4 h), 92%; at MAO-A [6] (read-out: MAO-A inhibition, Liver, intranasal, 6 mg/kg liquid formulation, 4 h), 83%; at MAO-A [6] (read-out: MAO-A inhibition, Striatum, intranasal, 6 mg/kg powder formulation, 4 h) it was 98%. For the same molecule, the inhibition at 6 mg/kg worked out at 75% on MAO-B [7] (rat, inhaled or nasal, read-out: MAO-B Inhibition, Intestine, intranasal, 6 mg/kg liquid formulation, 4 h) and 78% on MAO-B [7] (rat, inhaled or nasal, read-out: MAO-B Inhibition, Intestine, intranasal, 6 mg/kg powder formulation, 4 h). Further, the inhibition at 0.6 mg/kg on MAO-A [6] (read-out: MAO-A inhibition, Brain, intranasal, 0.6 mg/kg liquid formulation, 4 h) turned out to be 33%; on MAO-A [6] (read-out: MAO-A inhibition, Brain, intranasal, 0.6 mg/kg powder formulation, 4 h) it was 44%; on MAO-A [6] (read-out: MAO-A inhibition, Intestine, intranasal, 0.6 mg/kg liquid formulation, 4 h), 32%; at MAO-A [6] (read-out: MAO-A inhibition, Intestine, intranasal, 0.6 mg/kg powder formulation, 4 h), 42%; on MAO-A [6] (read-out: MAO-A inhibition, Liver, intranasal, 0.6 mg/kg liquid formulation, 4 h), 19%; at MAO-A [6] (read-out: MAO-A inhibition, Liver, intranasal, 0.6 mg/kg powder formulation, 4 h) it was 44%. For the same molecule, the inhibition at 0.6 mg/kg on MAO-A [6] (read-out: MAO-A inhibition, Striatum, intranasal, 0.6 mg/kg powder formulation, 4 h) is 61%; on MAO-B [7] (rat, inhaled or nasal, read-out: MAO-B Inhibition, Intestine, intranasal, 0.6 mg/kg liquid formulation, 4 h), 63%; on MAO-B [7] (rat, inhaled or nasal, read-out: MAO-B Inhibition, Intestine, intranasal, 0.6 mg/kg powder formulation, 4 h), 68%. Besides, the inhibition at 1.5 mg/kg came out at 86% on MAO-A [6] (read-out: MAO-A inhibition, Hippocampus, intranasal, 1.5 mg/kg powder formulation, 4 h); 74% on MAO-A [6] (read-out: MAO-A inhibition, Intestine, intranasal, 1.5 mg/kg powder formulation, 4 h); 72% at MAO-B [7] (rat, inhaled or nasal, read-out: MAO-B Inhibition, Intestine, intranasal, 1.5 mg/kg powder formulation, 4 h).

Take `C#CCN(C)[C@H](C)Cc1ccccc1` [Selegiline, (R)-N-methyl-N-(1-phenylpropan-2-yl)prop-1-yn-3-amine]: the oral bioavailability in series [8] is on record as 4-10%.
